# Measured values as given in the NIST ThermoML archive (doi:10.1021/je700234e).
# ± gives the expanded uncertainty stated by the source.
# Key:
# [1] = Crystal; DTA
# [2] = Molar enthalpy of transition or fusion; conditions: Crystal; DSC
smiles,measurement,setting,value
O=S1(=O)c2ccccc2-c2ccccc21 [dibenzothiophene sulfone],Normal melting temperature,[1],236.1 ± 0.5 °C
same,Molar enthalpy of transition or fusion,[2],6.49 ± 0.196 kcal/mol
